Laboratory results published in patent publication US3954814A, “Alkadienylcyclopropanecarboxylates” (Sumitomo Chemical Company, Limited, priority 1971, dated 1976).
In brackets after ≈: the same amount, converted by molar mass.

How the values were obtained:
[1] = system: Northern house mosquitoes; experiment: knock-down test of oil sprays on Northern house mosquito adults in (70 cm)^3 glass chamber (Experimental Example 2); assay type: in vivo
Procedure: The present compounds (1), (6), (20), (22), (23), (25), (27), (29), (30), (31), (39), (42), (43), (45), (49), (53), (56), (62), (64), (78), (81), (83), (85), (87), (88) and (89), and chrysanthemic acid esters and pyrethric acid esters corresponding thereto were individually formulated by use of deodorized kerosene into oil sprays of various test concentrations.
About 20 adults of Northern house mosquitoes were liberated in a (70 cm)^3 glass chamber, and 0.7 ml. of each of the oil sprays was sprayed into the chamber under a pressure of 1.5 kg/cm^2 by use of a glass atomizer. Subsequently, the number of knocked-down mosquitoes was counted to calculate the KT50 (50 percent knock down time) of each compound.

[2] = system: house flies; experiment: Campbell's turn table oil spray test on house fly adults (Experimental Example 1); assay type: in vivo; conditions: Musca domestica, 24 h, oil spray 5 ml, 10 min exposure, mortality after 1 day, read-out: LC50 (50 percent lethal concentration)
Procedure: The present compounds (1), (4), (8), (10), (14), (15), (20), (22), (32), (36), (38), (41), (44), (48), (50), (51), (52), (53), (61), (66), (68), (72), (73), (78), (80), (81), (90), (93) and (96), and chrysanthemic acid esters and pyrethric acid esters corresponding thereto were individually formulated by use of deodorized kerosene into oil sprays of various test concentrations.
Using the Campbell's turn table [disclosed in "Soap & Sanitary Chemicals," Vol. 14, No. 6, page 119 (1938)], 5 ml. of each of the oil sprays was sprayed. When 20 seconds had elapsed after the spraying, the shutter was opened, and adults of house flies (a group of about 100 flies) were exposed to the settling mist for 10 minutes and then transferred to an observation cage.
The above operation was repeated several times to measure the LC50 (50 percent lethal concentration) of each compound.

[3] = concentration of oil spray 0.1%
[4] = concentration of oil spray 0.2%

Structure (SMILES) | KT50 (50 percent knock down time) [1, 3] | LC50 [2] | KT50 (50 percent knock down time) [1, 4]
C#CCc1ccc(C(C#C)OC(=O)C2C(C=C(C)C=C)C2(C)C)o1 (centres unmarked) [Present compound (20), 5-Propargylα-ethynylfurfuryl 2',2'-dimethyl-3'-(2"-methyl-1",3"-butadienyl)-cyclopropanecarboxylate] | 102 s | 90 µg/mL (≈ 279 µM) | –
C#CCc1ccc(COC(=O)C2C(C=CC=C)C2(C)C)o1 (centres unmarked) [Present compound (64), 5-Propargylfurfuryl 2',2'-dimethyl-3' -(1",3"-butadienyl)-cyclopropanecarboxylate] | – | – | 98 s
C=CC(C)=CC1C(C(=O)OCN2C(=O)C3=C(CC=CC3)C2=O)C1(C)C (centres unmarked) [Present compound (30), 3,6-Dihydrophthalimidomethyl 2',2'-dimethyl-3'-(2"-methyl-1",3"-butadienyl)-cyclopropanecarboxylate] | 89 s | – | –
C#CCC1=C(C)C(OC(=O)C2C(C=C(C)C)C2(C)C)CC1=O (centres unmarked) [2-Propargyl-3-methyl-2-cyclopentene-1-one-4-yl chrysanthemate, reference compound] | 249 s | – | –
C#CCC1=C(C)C(OC(=O)C2C(C=CC=C)C2(C)C)CC1=O (centres unmarked) [Present compound (83), 2-Propargyl-3-methyl-2-cyclopentene-1-one-4-yl 2',2'-dimethyl-3'-(1",3"-butadienyl)-cyclopropanecarboxylate] | 183 s | – | –
C#CCc1ccc(COC(=O)C2C(C=C(C)C)C2(C)C)o1 (centres unmarked) [5-Propargylfurfuryl chrysanthemate, reference compound] | – | – | 132 s
C=CC=CC1C(C(=O)OCN2C(=O)C3=C(CC=CC3)C2=O)C1(C)C (centres unmarked) [Present compound (88), 3,6-Dihydrophthalimidomethyl 2',2'-dimethyl-3'-(1",3"-butadienyl)-cyclopropanecarboxylate] | 79 s | – | –
C#CCc1ccc(C(C#C)OC(=O)C2C(C=C(C)C)C2(C)C)o1 (stereo not drawn) [5-Propargyl-α-ethynylfurfuryl chrysanthemate, reference compound] | 120 s | 260 µg/mL (≈ 838 µM) | –
C=CC=CC1C(C(=O)OCN2C(=O)C(C)=C(C)C2=O)C1(C)C (centres unmarked) [Present compound (89), Dimethylmaleimidomethyl 2,2-dimethyl-3-(1',3'-butadienyl)-cyclopropanecarboxylate] | 72 s | – | –
C=CCC1=C(C)C(OC(=O)C2C(C=C(C)C=C)C2(C)C)CC1=O (centres unmarked) [Present compound (23), 2-Allyl-3-methyl-2-cyclopentene-1-one-4-yl 2',2'-dimethyl-3'-(2"-methyl-1",3"-butadienyl)-cyclopropanecarboxylate] | – | – | 152 s
C=CC=CC1C(C(=O)OCN2C(=O)C3=C(CCCC3)C2=O)C1(C)C (centres unmarked) [Present compound (85), 3,4,5,6-Tetrahydrophthalimidomethyl 2',2'-dimethyl-3'-(1",3"-butadienyl)-cyclopropanecarboxylate] | 74 s | – | –
C#CCc1ccc(COC(=O)C2C(C=C(C)C=CC)C2(C)C)o1 (centres unmarked) [Present compound (39), 5-Propargylfurfuryl 2',2'-dimethyl-3'-(2"-methyl-1",3"-pentadienyl)-cyclopropanecarboxylate] | – | – | 114 s
C=CC=CC1C(C(=O)OC(C#N)c2cccc(Oc3cccc(C)c3)c2)C1(C)C (stereo not drawn) [Present compound (96), 3-(m-Tolyloxy)-α-cyanobenzyl 2',2'-dimethyl-3'-(1",3"-butadienyl)-cyclopropanecarboxylate] | – | 60 µg/mL (≈ 155 µM) | –
C=CC(C)=CC1C(C(=O)OCN2C(=O)c3ccccc3C2=S)C1(C)C (centres unmarked) [Present compound (29), Monothiophthalimidomethyl 2,2-dimethyl-3-(2'-methyl-1',3'-butadienyl)-cyclopropanecarboxylate] | – | – | 182 s
CC(C)=CC(C)=CC1C(C(=O)OCN2C(=O)C3=C(CCCC3)C2=O)C1(C)C (centres unmarked) [Present compound (49), 3,4,5,6-Tetrahydrophthalimidomethyl 2',2'-dimethyl-3'-(2",4"-dimethyl-1",3"-pentadienyl)-cyclopropanecarboxylate] | 86 s | – | –
CC(C)=CC1C(C(=O)OCN2C(=O)C3=C(CCCC3)C2=O)C1(C)C (centres unmarked) [3,4,5,6-Tetrahydrophthalimidomethyl chrysanthemate, reference compound] | 103 s | – | –
C=CC(C)=CC1C(C(=O)OCN2C(=O)C3=C(CCCC3)C2=O)C1(C)C (centres unmarked) [Present compound (27), 3,4,5,6-Tetrahydrophthalimidomethyl 2',2'-dimethyl-3'-(2"-methyl-1",3"-butadienyl)-cyclopropanecarboxylate] | 83 s | – | –

Structure (SMILES) | KT50 (50 percent knock down time) [1, 3] | LC50 [2] | KT50 (50 percent knock down time) [1, 4]
C#CCc1ccc(COC(=O)C2C(C=C(C)C=C(C)C)C2(C)C)o1 (centres unmarked) [Present compound (45), 5-Propargylfurfuryl 2',2'-dimethyl-3'-(2",4"-dimethyl-1",3"-pentadienyl)-cyclopropanecarboxylate] | – | – | 117 s
C#CCc1ccc(C(C#C)OC(=O)C2C(C=C(C)C(=O)OC)C2(C)C)o1 (stereo not drawn) [5-Propargyl-α-ethynylfurfuryl pyrethrate, reference compound] | – | 820 µg/mL (≈ 2310 µM) | –
CC(C)=CC1C(C(=O)OCN2C(=O)C(C)=C(C)C2=O)C1(C)C (centres unmarked) [Dimethylmaleimidomethyl chrysanthemate, reference compound] | 101 s | – | –
C#CCC1=C(C)C(OC(=O)C2C(C=C(C)C=C)C2(C)C)CC1=O (centres unmarked) [Present compound (25), 2-propargyl-3-methyl-2-cyclopentene-1-one-4-yl 2',2'-dimethyl-3'-(2"-methyl-1",3"-butadienyl)-cyclopropanecarboxylate] | 190 s | – | –
C=CC(C)=CC1C(C(=O)OCN2C(=O)C(C)=C(C)C2=O)C1(C)C (centres unmarked) [Present compound (31), Dimethylmaleimidomethyl 2,2-dimethyl-3-(2'-methyl-1',3'-butadienyl)-cyclopropanecarboxylate] | 80 s | – | –
CC=C(C)C=CC1C(C(=O)OCc2coc(Cc3ccccc3)c2)C1(C)C (centres unmarked) [Present compound (56), 5-Benzyl-3-furylmethyl 2',2'-dimethyl-3'-(3"-methyl-1",3"-pentadienyl)-cyclopropanecarboxylate] | – | – | 150 s
CC=CC(C)=CC1C(C(=O)OCN2C(=O)C3=C(CCCC3)C2=O)C1(C)C (centres unmarked) [Present compound (43), 3,4,5,6-Tetrahydrophthalimidomethyl 2',2'-dimethyl-3'-(2"-methyl-1",3"-pentadienyl)-cyclopropanecarboxylate] | 197 s | – | –
CC(C)=CC1C(C(=O)OCN2C(=O)C3=C(CC=CC3)C2=O)C1(C)C (centres unmarked) [3,6-Dihydrophthalimidomethyl chrysanthemate, reference compound] | 107 s | – | –
C=CC=CC1C(C(=O)OC(C#N)c2cccc(Cc3ccccc3)c2)C1(C)C (stereo not drawn) [Present compound (62), 3-Benzyl-α-cyanobenzyl 2',2'-dimethyl-3'-(1",3"-butadienyl)-cyclopropanecarboxylate] | 144 s | – | –
C=CCC1=C(C)C(OC(=O)C2C(C=C(C)C=CC)C2(C)C)CC1=O (centres unmarked) [Present compound (42), 2-Allyl-3-methyl-2-cyclopentene-1-one-4-yl 2',2'-dimethyl-3'-(2"-methyl-1",3"-pentadienyl)-cyclopropanecarboxylate] | – | – | 165 s
C=CCC1=C(C)C(OC(=O)C2C(C=C(C)C(=O)OC)C2(C)C)CC1=O (centres unmarked) [2-Allyl-3-methyl-2-cyclopentene-1-one-4-yl pyrethrate, reference compound] | – | – | 173 s
CC(C)=CC1C(C(=O)OCN2C(=O)c3ccccc3C2=S)C1(C)C (centres unmarked) [Monothiophthalimidomethyl chrysanthemate, reference compound] | – | – | 207 s
COC(=O)C(C)=CC1C(C(=O)OCc2cccc(Oc3ccccc3)c2)C1(C)C (centres unmarked) [3-Phenoxybenzyl pyrethrate, reference compound] | – | 1250 µg/mL (≈ 3170 µM) | –
C=CCc1cc(C)c(COC(=O)C2C(C=C(C)C(=O)OC)C2(C)C)c(C)c1 (centres unmarked) [2,6-Dimethyl-4-allylbenzyl pyrethrate, reference compound] | – | 1420 µg/mL (≈ 3830 µM) | –
C#CCc1ccc(COC(=O)C2C(C=C(C)C=C)C2(C)C)o1 (centres unmarked) [Present compound (6), 5-Propargylfurfuryl 2',2'-dimethyl-3'-(2"-methyl-1",3"-butadienyl)-cyclopropanecarboxylate] | – | – | 105 s
C=CC=CC1C(C(=O)OCN2C(=O)c3ccccc3C2=S)C1(C)C (centres unmarked) [Present compound (87), Monothiophthalimidomethyl 2',2'-dimethyl-3'-(1",3"-butadienyl)-cyclopropanecarboxylate] | – | – | 177 s
